pIC50: −log10 of the molar value. Where two headings read alike, the source gives them in different places.
Legend:
hCLK1 = target: T1, hCLK1 (Homo sapiens, UniProt P49759); test: KINOMEscan; type: binding
T1 construct: purchased DiscoverX

[1] = system: ESCC, HCC, and breast cancer cell lines; test: Proliferation assay (CellTiter-Glo); type: cell-based; details: Homo sapiens, range over cell lines of all three panels
Protocol: Cell viability was measured using CellTiter-Glo^TM (Promega) according to the manufacturer's instructions.

hWEE1 = target: T2, hWEE1 (Homo sapiens, UniProt P30291); test: KINOMEscan; type: binding
T2 construct: purchased DiscoverX

hBMPR1B = target: T3, hBMPR1B (Homo sapiens, UniProt O00238); test: KINOMEscan; type: binding
T3 construct: purchased DiscoverX

hDCAMKL2 = target: T4, hDCAMKL2 (Homo sapiens, UniProt Q8N568); test: KINOMEscan; type: binding
T4 construct: purchased DiscoverX (KINOMEscan platform)

hCDKL3 = target: T5, hCDKL3 (Homo sapiens, UniProt Q8IVW4); test: KINOMEscan; type: binding
T5 construct: purchased DiscoverX

[2] = target: T6, hRPS6KA4(Kin.Dom.2-C-term) (Homo sapiens, UniProt O75676); test: KINOMEscan; type: binding
T6 construct: hRPS6KA4(Kin.Dom.2-C-term); purchased DiscoverX (KINOMEscan platform)

hWEE2 = target: T7, hWEE2 (Homo sapiens, UniProt P0C1S8); test: KINOMEscan; type: binding
T7 construct: purchased DiscoverX

hCSNK2A2 = target: T8, hCSNK2A2 (Homo sapiens, UniProt P19784); test: KINOMEscan; type: binding
T8 construct: purchased DiscoverX (KINOMEscan platform)

hMAP3K4 = target: T9, hMAP3K4 (Homo sapiens, UniProt Q9Y6R4); test: KINOMEscan; type: binding
T9 construct: purchased DiscoverX (KINOMEscan platform)

hRSK4(Kin.Dom.1-N-term) = target: T10, hRSK4(Kin.Dom.1-N-term) (Homo sapiens, UniProt Q9UK32); test: KINOMEscan; type: binding
T10 construct: hRSK4(Kin.Dom.1-N-term); purchased DiscoverX (KINOMEscan platform)

hCLK4 = target: T11, hCLK4 (Homo sapiens, UniProt Q9HAZ1); test: KINOMEscan; type: binding
T11 construct: purchased DiscoverX (KINOMEscan platform)

hLRRK2(G2019S) = target: T12, hLRRK2(G2019S) (Homo sapiens, UniProt Q5S007, G2019S); test: KINOMEscan; type: binding
T12 construct: purchased DiscoverX (KINOMEscan platform)

hIKK-epsilon = target: T13, hIKK-epsilon (Homo sapiens, UniProt Q14164); test: KINOMEscan; type: binding
T13 construct: purchased DiscoverX (KINOMEscan panel)

hSTK33 = target: T14, hSTK33 (Homo sapiens, UniProt Q9BYT3); test: KINOMEscan; type: binding
T14 construct: purchased DiscoverX (KINOMEscan platform)

hGRK4 = target: T15, hGRK4 (Homo sapiens, UniProt P32298); test: KINOMEscan; type: binding
T15 construct: purchased DiscoverX

hPPARδ = target: T16, hPPARδ (Homo sapiens, UniProt Q03181); test: Nuclear hormone receptor assay (Eurofins-CEREP); details: read-out: Relative IC50
T16 construct: Eurofins-CEREP

[3] = system: lysine methylation of histone H3 or H4; test: Mass spectrometry proteomics of cell-derived histones, SMYD2-overexpressing KYSE-150 cells; type: cell-based, human; details: 5 μM LLY-507 versus untreated cells
Protocol: Acid-extracted histone samples were chemically derivatized using propionic anhydride and digested with trypsin for 6 h at 37 °C. The digested peptides were treated with an additional round of propionylation and desalted using a C18 extracted mini disk (Empore 3M). Approximately 1 μg of each sample was loaded via an autosampler (Eksigent NanoLC.Ultra 2D Plus) onto a homemade precolumn (3-μm particle size, 120-Å pore size) at a flow rate of 2 μl/min. Peptides were chromatographically resolved via a 75-μm reversed phase analytical column packed with C18-AQ resin (1.9-μm particle size, 120-Å pore size) using a 77-min 2–98% solvent B gradient (solvent A, 0.1% formic acid; solvent B, 100% acetonitrile) at a flow rate of 250 nl/min. The electrosprayed peptides were detected by an Orbitrap Elite^TM mass spectrometer (Thermo Fisher Scientific) with a resolution of 120,000 for full MS spectrum followed by MS/MS spectra obtained in the ion trap. The relative abundance of each modification, expressed as a percentage on a histone peptide sequence, was quantified by analyzing its MS and MS/MS spectra via Epiquant, an in-house software.

hSNRK = target: T17, hSNRK (Homo sapiens, UniProt Q9NRH2); test: KINOMEscan; type: binding
T17 construct: purchased DiscoverX (KINOMEscan platform)

hSRC = target: T18, hSRC (Homo sapiens, UniProt P12931); test: KINOMEscan; type: binding
T18 construct: purchased DiscoverX (KINOMEscan platform)

hFGFR3(G697C) = target: T19, hFGFR3(G697C) (Homo sapiens, UniProt P22607, G697C); test: KINOMEscan; type: binding
T19 construct: purchased DiscoverX

hEPHB3 = target: T20, hEPHB3 (Homo sapiens, UniProt P54753); test: KINOMEscan; type: binding
T20 construct: purchased DiscoverX

hROS1 = target: T21, hROS1 (Homo sapiens, UniProt P08922); test: KINOMEscan; type: binding
T21 construct: purchased DiscoverX (KINOMEscan platform)

hBTK = target: T22, hBTK (Homo sapiens, UniProt Q06187); test: KINOMEscan; type: binding
T22 construct: purchased DiscoverX

hEGFR(E746-A750del) = target: T23, hEGFR(E746-A750del) (Homo sapiens, UniProt P00533, DEL746-750); test: KINOMEscan; type: binding
T23 construct: purchased DiscoverX

hABL1(pF317L) = target: T24, hABL1(pF317L) (Homo sapiens, UniProt P00519, F317L); test: KINOMEscan; type: binding
T24 construct: purchased DiscoverX (KINOMEscan platform)

hWNK3 = target: T25, hWNK3 (Homo sapiens, UniProt Q9BYP7); test: KINOMEscan; type: binding
T25 construct: purchased DiscoverX

hTXK = target: T26, hTXK (Homo sapiens, UniProt P42681); test: KINOMEscan; type: binding
T26 construct: purchased DiscoverX

hH1 = hH1 (Homo sapiens, UniProt P35367); test: Ca Mobilization Potentiation (Eurofins-CEREP); details: @ 10 μM
hD1 = hD1 (Homo sapiens, UniProt P21728); test: β-arrestin Antagonist (Eurofins-CEREP); details: read-out: % Effect, Inhibition
hTGFBR1 = target: T27, hTGFBR1 (Homo sapiens, UniProt P36897); test: KINOMEscan; type: binding
T27 construct: purchased DiscoverX

hSBK1 = target: T28, hSBK1 (Homo sapiens, UniProt Q52WX2); test: KINOMEscan; type: binding
T28 construct: purchased DiscoverX (KINOMEscan platform)

hLKB1 = target: T29, hLKB1 (Homo sapiens, UniProt Q15831); test: KINOMEscan; type: binding
T29 construct: purchased DiscoverX (KINOMEscan platform)

T21 sequence (P08922 28-2347): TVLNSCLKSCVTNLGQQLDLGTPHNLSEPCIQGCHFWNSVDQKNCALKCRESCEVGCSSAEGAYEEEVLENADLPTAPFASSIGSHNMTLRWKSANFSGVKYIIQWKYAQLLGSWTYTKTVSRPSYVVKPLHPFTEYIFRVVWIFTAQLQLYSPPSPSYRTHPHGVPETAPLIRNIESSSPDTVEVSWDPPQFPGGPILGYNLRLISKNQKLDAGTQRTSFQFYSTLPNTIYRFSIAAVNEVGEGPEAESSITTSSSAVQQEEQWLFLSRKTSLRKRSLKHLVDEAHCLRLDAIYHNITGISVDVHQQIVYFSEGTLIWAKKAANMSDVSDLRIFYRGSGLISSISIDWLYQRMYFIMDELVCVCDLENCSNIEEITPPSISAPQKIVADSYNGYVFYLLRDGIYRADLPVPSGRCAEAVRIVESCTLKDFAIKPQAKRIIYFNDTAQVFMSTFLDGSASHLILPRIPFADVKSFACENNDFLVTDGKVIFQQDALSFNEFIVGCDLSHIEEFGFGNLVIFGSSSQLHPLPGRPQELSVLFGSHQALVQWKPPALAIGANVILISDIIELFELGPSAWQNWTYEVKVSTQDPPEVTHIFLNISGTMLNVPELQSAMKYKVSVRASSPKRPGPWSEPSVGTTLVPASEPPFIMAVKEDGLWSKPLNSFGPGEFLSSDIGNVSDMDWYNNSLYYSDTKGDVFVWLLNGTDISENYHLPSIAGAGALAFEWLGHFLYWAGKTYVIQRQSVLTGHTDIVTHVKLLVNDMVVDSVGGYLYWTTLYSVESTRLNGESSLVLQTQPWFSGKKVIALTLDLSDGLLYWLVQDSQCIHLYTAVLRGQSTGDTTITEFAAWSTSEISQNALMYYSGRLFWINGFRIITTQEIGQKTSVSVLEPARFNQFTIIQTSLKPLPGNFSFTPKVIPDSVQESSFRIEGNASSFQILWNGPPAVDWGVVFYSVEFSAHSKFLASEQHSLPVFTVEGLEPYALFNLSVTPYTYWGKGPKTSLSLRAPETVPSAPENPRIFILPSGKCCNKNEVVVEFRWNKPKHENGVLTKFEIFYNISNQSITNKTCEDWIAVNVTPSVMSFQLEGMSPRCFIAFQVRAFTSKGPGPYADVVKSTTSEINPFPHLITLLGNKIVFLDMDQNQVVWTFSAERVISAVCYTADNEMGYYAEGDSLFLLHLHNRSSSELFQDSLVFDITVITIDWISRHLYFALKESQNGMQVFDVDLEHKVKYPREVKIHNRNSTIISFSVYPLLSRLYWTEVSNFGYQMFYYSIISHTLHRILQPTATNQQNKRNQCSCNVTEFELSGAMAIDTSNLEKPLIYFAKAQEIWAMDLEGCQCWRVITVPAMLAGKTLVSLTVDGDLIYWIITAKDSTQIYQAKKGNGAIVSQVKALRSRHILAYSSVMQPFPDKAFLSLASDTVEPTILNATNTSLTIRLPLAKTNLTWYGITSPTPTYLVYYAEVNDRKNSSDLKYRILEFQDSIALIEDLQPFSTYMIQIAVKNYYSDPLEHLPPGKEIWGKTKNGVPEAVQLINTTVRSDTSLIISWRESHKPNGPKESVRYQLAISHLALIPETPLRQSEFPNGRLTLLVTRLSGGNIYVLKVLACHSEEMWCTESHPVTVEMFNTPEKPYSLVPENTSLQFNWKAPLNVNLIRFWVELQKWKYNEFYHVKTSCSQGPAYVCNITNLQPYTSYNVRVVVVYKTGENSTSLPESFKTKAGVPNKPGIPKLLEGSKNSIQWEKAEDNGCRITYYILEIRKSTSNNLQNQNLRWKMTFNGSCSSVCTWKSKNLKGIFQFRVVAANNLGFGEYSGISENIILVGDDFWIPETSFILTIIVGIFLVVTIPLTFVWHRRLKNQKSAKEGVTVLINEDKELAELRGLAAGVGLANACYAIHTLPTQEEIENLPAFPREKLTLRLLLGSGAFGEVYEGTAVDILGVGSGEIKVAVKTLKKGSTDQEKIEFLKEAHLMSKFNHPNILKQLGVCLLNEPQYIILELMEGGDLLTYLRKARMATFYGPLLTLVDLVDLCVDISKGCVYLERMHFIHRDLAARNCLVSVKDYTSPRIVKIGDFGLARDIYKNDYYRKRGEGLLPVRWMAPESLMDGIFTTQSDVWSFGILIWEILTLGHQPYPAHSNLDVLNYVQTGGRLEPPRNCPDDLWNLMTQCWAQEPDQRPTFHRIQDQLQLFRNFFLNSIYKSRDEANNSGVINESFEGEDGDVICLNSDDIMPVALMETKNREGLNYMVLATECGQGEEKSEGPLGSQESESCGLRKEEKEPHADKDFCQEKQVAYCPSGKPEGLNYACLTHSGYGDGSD
T14 sequence (Q9BYT3 whole entry): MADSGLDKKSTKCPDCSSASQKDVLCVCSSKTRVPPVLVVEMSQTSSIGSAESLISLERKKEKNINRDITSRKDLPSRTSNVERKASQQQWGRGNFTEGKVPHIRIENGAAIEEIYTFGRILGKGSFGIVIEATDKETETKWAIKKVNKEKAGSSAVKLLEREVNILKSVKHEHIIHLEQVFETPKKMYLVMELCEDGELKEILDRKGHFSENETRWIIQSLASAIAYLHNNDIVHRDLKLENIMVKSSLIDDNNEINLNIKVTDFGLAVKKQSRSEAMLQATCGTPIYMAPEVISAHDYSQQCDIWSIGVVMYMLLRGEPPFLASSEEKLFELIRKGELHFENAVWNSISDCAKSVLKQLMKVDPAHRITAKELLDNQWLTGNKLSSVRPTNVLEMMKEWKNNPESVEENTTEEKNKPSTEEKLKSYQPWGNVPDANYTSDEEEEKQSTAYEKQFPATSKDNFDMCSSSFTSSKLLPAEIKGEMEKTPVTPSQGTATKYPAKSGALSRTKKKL
T22 sequence (Q06187 whole entry): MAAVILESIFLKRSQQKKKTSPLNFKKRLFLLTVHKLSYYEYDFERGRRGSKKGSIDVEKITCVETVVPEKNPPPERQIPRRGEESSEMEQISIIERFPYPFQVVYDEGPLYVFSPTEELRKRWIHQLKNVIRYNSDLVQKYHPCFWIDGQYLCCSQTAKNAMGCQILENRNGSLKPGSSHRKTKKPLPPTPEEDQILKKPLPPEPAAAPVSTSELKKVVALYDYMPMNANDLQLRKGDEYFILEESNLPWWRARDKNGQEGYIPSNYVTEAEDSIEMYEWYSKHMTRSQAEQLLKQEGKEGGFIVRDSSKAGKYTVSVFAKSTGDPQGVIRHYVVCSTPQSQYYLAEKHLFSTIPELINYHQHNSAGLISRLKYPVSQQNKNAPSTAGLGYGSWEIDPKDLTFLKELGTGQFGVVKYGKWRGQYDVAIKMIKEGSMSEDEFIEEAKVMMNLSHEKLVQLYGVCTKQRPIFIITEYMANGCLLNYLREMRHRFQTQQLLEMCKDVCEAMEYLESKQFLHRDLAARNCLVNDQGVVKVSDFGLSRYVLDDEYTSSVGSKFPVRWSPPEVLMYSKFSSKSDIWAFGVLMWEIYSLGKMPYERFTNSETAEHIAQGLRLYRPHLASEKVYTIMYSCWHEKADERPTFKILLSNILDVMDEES
T2 sequence (P30291 whole entry): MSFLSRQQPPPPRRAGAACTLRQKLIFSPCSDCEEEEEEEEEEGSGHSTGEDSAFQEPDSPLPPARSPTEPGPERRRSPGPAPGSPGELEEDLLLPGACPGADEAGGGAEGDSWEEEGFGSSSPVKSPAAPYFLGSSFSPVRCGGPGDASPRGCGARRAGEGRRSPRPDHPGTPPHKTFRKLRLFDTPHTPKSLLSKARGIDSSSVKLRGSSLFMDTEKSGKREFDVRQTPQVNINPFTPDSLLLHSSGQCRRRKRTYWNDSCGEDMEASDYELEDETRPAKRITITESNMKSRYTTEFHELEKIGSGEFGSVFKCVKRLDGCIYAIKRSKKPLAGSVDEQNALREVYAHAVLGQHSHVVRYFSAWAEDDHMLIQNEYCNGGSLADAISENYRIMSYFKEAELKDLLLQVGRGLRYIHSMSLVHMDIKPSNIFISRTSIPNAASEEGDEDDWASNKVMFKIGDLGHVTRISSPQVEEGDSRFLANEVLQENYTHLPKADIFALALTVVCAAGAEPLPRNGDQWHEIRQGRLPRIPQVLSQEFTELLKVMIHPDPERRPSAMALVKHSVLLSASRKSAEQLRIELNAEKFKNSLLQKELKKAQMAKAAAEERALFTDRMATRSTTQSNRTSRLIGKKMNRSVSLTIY
T15 sequence (P32298 whole entry): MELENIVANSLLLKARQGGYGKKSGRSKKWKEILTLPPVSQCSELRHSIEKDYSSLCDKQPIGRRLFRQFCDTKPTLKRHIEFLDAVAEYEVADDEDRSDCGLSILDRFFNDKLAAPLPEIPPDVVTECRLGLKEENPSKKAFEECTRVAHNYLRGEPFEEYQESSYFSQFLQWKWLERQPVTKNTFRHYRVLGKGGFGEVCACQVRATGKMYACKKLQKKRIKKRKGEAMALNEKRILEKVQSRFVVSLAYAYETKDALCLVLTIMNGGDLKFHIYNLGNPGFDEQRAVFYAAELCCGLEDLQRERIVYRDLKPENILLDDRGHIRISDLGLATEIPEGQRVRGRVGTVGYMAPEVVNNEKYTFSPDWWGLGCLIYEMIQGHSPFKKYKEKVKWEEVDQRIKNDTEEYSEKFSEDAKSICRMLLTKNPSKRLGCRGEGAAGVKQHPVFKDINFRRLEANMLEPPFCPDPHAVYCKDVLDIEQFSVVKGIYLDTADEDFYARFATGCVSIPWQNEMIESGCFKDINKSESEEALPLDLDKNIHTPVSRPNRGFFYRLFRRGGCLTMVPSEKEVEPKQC
T8 sequence (P19784 whole entry): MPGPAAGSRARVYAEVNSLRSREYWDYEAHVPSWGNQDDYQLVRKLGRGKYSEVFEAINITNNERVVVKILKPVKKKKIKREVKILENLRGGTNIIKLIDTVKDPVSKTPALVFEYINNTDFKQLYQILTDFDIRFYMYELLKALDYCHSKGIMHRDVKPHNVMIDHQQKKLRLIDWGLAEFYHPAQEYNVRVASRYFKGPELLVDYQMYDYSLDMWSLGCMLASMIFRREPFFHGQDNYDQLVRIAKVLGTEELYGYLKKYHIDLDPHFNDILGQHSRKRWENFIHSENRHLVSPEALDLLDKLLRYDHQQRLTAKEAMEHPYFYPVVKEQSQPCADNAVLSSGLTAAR

Cc1cn(CCN2CCN(c3ccccc3-c3cc(C#N)cc(C(=O)NCCCN4CCCC4)c3)CC2)c2ccccc12 [LLY-507, 3-cyano-5-{2-[4-[2-(3-methylindol-1-yl)ethyl]piperazin-1-yl]-phenyl}-N-[(3-pyrrolidin-1-yl)propyl]benzamide]
did not show any significant change: change in lysine methylation of histone H3 or H4 [3]
< 4.70: pIC50 (hCLK1) | pIC50 (hWEE1) | pIC50 (hBMPR1B) | pIC50 (hDCAMKL2) | pIC50 (hCDKL3) | pIC50 [2] | pIC50 (hWEE2) | pIC50 (hCSNK2A2) | pIC50 (hMAP3K4) | pIC50 (hRSK4(Kin.Dom.1-N-term)) | pIC50 (hCLK4) | pIC50 (hLRRK2(G2019S)) | pIC50 (hIKK-epsilon) | pIC50 (hSTK33) | pIC50 (hGRK4) | pIC50 (hSNRK) | pIC50 (hSRC) | pIC50 (hFGFR3(G697C)) | pIC50 (hEPHB3) | pIC50 (hROS1) | pIC50 (hBTK) | pIC50 (hEGFR(E746-A750del)) | pIC50 (hABL1(pF317L)) | pIC50 (hWNK3) | pIC50 (hTXK) | pIC50 (hTGFBR1) | pIC50 (hSBK1) | pIC50 (hLKB1)
5.49 to 6.52: pIC50 ([1]; 168 h, 7-day treatment, read-out: IC50, proliferation, longer term assay)
-8.5%: % Effect, Potentiation (hH1)
43.4%: inhibition at 10 µM (hD1)
5.22 to 5.82: pIC50 ([1]; 96 h, 3 to 4-day treatment, read-out: IC50, proliferation, standard assay)
< 5.00: pIC50 (hPPARδ)
